Patent US20240059689A1, “PURINE DERIVATIVES AS ANTICANCER AGENTS” (Tango Therapeutics, Inc., priority 2021, published 2024)
Like-named read-outs stand apart in the source and are kept apart here.

Columns and labels:
[1] = biological target: USP1-UAF1 (Homo sapiens, UniProt O94782); assay: Ubiquitin Rhodamine assay of USP1-UAF1 activity; assay type: biochemical
Protocol: Certain compounds of the disclosure were assessed for USP1-UAF1 activity in a Ubiquitin Rhodamine assay as described in Biology Example 1.

[2] = system: MDA-MB-436; assay: Viability assay, BRCA1 mutant cell line MDA-MB-436; assay type: cell-based; conditions: BRCA1 mutant MDA-MB-436, read-out: MDA-MB-436 rel IC50
Description: (§1) Table 1 also indicates IC50 values in a viability assay for a non-isogenic pair of BRCA1 mutant (column 5-MDA-MB-436) and BRCA1 WT (column 6—HCC1954) cell lines. These values indicate the effect of treatment with compound on cell survival.

[3] = system: HCC1954; assay: Viability assay, BRCA1 WT cell line HCC1954; assay type: cell-based; conditions: read-out: HCC1954 rel IC50
Description: as §1

[4] = system: monoubiquitinated PCNA; assay: AlphaLISA assay measuring monoubiquitinated PCNA in MDA-MB-436; assay type: cell-based; conditions: Homo sapiens, MDA-MB-436, monoubiquitinated PCNA, read-out: Alpha Lisa IC50
Description: Table 1 also indicates IC50 values for exemplary compounds in an AlphaLISA assay measuring monoubiquitinated PCNA in a BRCA1 mutant cell line (MDA-MB-436; column 7).

[5] = Homo sapiens, MDA-MB-436, viability
[6] = Homo sapiens, HCC1954, viability

Sequence of USP1-UAF1 (O94782 whole entry): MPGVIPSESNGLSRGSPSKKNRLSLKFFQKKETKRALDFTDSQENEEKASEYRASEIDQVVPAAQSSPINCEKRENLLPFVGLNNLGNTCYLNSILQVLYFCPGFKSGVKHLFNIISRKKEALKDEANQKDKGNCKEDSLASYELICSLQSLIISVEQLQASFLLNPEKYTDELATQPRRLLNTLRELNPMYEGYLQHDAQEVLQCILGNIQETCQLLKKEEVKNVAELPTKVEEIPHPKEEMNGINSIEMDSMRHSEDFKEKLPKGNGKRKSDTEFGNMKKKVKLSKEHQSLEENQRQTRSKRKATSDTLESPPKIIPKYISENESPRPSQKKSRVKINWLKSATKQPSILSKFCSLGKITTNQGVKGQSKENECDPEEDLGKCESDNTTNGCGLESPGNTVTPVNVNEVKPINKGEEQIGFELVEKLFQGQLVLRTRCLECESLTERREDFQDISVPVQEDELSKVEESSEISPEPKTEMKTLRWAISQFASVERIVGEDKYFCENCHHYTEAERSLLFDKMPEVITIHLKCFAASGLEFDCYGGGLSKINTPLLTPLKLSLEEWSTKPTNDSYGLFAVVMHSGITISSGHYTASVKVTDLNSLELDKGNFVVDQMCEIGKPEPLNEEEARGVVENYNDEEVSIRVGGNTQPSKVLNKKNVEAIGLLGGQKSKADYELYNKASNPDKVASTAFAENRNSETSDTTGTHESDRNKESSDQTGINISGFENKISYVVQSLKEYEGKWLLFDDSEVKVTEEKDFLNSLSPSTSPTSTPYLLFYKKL
Sequence of USP1-UAF1 (Q8TAF3 whole entry partner): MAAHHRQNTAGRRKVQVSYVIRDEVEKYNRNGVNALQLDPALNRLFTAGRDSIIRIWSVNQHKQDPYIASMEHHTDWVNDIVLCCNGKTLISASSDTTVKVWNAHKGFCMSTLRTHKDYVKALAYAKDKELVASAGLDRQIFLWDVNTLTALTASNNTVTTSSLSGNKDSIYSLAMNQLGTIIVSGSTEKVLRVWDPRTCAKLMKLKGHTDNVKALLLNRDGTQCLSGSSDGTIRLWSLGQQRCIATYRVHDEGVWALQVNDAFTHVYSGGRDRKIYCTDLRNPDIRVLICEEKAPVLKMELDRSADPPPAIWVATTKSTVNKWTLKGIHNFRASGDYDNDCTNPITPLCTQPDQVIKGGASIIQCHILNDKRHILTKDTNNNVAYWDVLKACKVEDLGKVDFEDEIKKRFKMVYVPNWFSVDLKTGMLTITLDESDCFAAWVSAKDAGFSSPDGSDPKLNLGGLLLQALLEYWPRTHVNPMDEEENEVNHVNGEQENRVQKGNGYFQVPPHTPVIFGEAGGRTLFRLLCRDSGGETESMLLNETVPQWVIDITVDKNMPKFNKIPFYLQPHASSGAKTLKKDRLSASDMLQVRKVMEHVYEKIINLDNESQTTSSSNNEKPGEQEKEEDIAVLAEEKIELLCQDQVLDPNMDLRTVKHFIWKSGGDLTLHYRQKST

Structure (SMILES) | IC50 [1] | IC50 [2, 5] | IC50 [3, 6] | IC50 [4] | IC50 ([2]; viability) | IC50 ([3]; viability)
CC(C)c1ccccc1-c1nc(C#N)c2c(n1)n(Cc1ccc(-c3nc(C(F)(F)F)cn3C)cc1)c(=N)n2C [Example A-13, 8-imino-2-(2-isopropylphenyl)-7-methyl-9-(4-(1-methyl-4-(trifluoromethyl)-1H-imidazol-2-yl)benzyl)-8,9-dihydro-7H-purine-6-carbonitrile] | 100 to 10000 nM | 250 to 10000 nM | 250 to 10000 nM | 250 to 10000 nM |  | 
Cc1nc(-c2ccccc2-c2ccccc2Cl)nc2c1n(C)c(=N)n2Cc1ccc(-c2nc(C(F)(F)F)cn2C)cc1 (single isomer, unassigned) [Example A-15c, 2-(2′-chloro-[1,1′-biphenyl]-2-yl)-6,7-dimethyl-9-(4-(1-methyl-4-(trifluoromethyl)-1H-imidazol-2-yl)benzyl)-7,9-dihydro-8H-purin-8-imine] | < 30 nM | 100 to 250 nM | 250 to 10000 nM | < 100 nM |  | 
C=C(C)c1ccccc1-c1nc(C)c2c(n1)n(Cc1ccc(-c3nc(C(F)(F)F)cn3C)cc1)c(=N)n2C [Example A-16, 6,7-dimethyl-9-(4-(1-methyl-4-(trifluoromethyl)-1H-imidazol-2-yl)benzyl)-2-(2-(prop-1-en-2-yl)phenyl)-7,9-dihydro-8H-purin-8-imine] | < 30 nM | < 100 nM | 250 to 10000 nM | < 100 nM |  | 
CC(C)c1ccccc1-c1ncc2c(n1)n(C(C)c1ccc(-c3nc(Cl)cn3C)cc1)c(=N)n2C (single isomer, unassigned) [Example A-9c, 9-(1-(4-(4-chloro-1-methyl-1H-imidazol-2-yl)phenyl)ethyl)-2-(2-isopropylphenyl)-7-methyl-7,9-dihydro-8H-purin-8-imine] | 30 to 100 nM |  |  | 100 to 250 nM | 250 to 10000 nM | ≥ 10000 nM
Cn1cc(C(F)(F)F)nc1-c1ccc(Cn2c(=N)n(C)c3cnc(-c4cccc(F)c4OC(F)F)nc32)cc1 [Example T-027, 2-[2-(difluoromethoxy)-3-fluoro-phenyl]-7-methyl-9-[[4-[1-methyl-4-(trifluoromethyl)imidazol-2-yl]phenyl]methyl]purin-8-imine] | 30 to 100 nM | 250 to 10000 nM | 250 to 10000 nM | 250 to 10000 nM |  | 
CC(C)c1ccccc1-c1ncc2c(n1)n(Cc1ccc(-c3nc(C(F)(F)F)c[nH]3)cc1)c(=N)n2C [Example A-5, 2-(2-isopropylphenyl)-7-methyl-9-(4-(4-(trifluoromethyl)-1H-imidazol-2-yl)benzyl)-7,9-dihydro-8H-purin-8-imine] | 30 to 100 nM | 250 to 10000 nM | 250 to 10000 nM | 250 to 10000 nM |  | 
Cc1ccc(C(C)C)c(-c2ncc3c(n2)n(Cc2ccc(-c4nc(C(F)(F)F)cn4C)cc2)c(=N)n3C)c1 [Example T-018, 2-(2-isopropyl-5-methyl-phenyl)-7-methyl-9-[[4-[1-methyl-4-(trifluoromethyl)imidazol-2-yl]phenyl]methyl]purin-8-imine] | 30 to 100 nM | 250 to 10000 nM | 250 to 10000 nM | 250 to 10000 nM |  | 
CC(C)c1ccccc1-c1ncc2c(n1)n(Cc1ccc(-c3nc(C(F)(F)F)cn3C)cc1)c(=N)n2C1CCC1 [Example A-34, 7-cyclobutyl-2-(2-isopropylphenyl)-9-(4-(1-methyl-4-(trifluoromethyl)-1H-imidazol-2-yl)benzyl)-7,9-dihydro-8H-purin-8-imine] | < 30 nM | 100 to 250 nM | 250 to 10000 nM | < 100 nM |  | 
Cc1nc(-c2ccccc2C(C)C)nc2c1n(C)c(=N)n2Cc1ccc(-c2nc(Cl)cn2C)cc1 [Example A-38, 9-(4-(4-chloro-1-methyl-1H-imidazol-2-yl)benzyl)-2-(2-isopropylphenyl)-6,7-dimethyl-7,9-dihydro-8H-purin-8-imine] | < 30 nM | < 100 nM | 250 to 10000 nM | < 100 nM |  | 

More lines, now with the values ahead:

IC50 [1] | IC50 [2, 5] | IC50 [3, 6] | IC50 [4] | IC50 ([2]; viability) | IC50 ([3]; viability) | Structure (SMILES)
< 30 nM | < 100 nM | ≥ 10000 nM | < 100 nM |  |  | CCn1cc(C(F)(F)F)nc1-c1ccc([C@@H](C)n2c(=N)n(CC(F)(F)F)c3cnc(-c4c(OC)ncnc4C4CC4)nc32)cc1 [Example T-106, (R)-2-(4-cyclopropyl-6-methoxypyrimidin-5-yl)-9-(1-(4-(1-ethyl-4-(trifluoromethyl)-1H-imidazol-2-yl)phenyl)ethyl)-7-(2,2,2-trifluoroethyl)-7H-purin-8(9H)-imine]
30 to 100 nM | < 100 nM | ≥ 10000 nM | < 100 nM |  |  | COc1ncnc(C2CC2(F)F)c1-c1ncc2c(n1)n(Cc1ccc(-c3nc(C(F)(F)F)cn3C)cc1)c(=N)n2C (stereo not shown) [Example T-111, 2-(4-(2,2-difluorocyclopropyl)-6-methoxypyrimidin-5-yl)-7-methyl-9-(4-(1-methyl-4-(trifluoromethyl)-1H-imidazol-2-yl)benzyl)-7H-purin-8(9H)-imine]
< 30 nM | 100 to 250 nM | ≥ 10000 nM | < 100 nM |  |  | CC(C)c1ccccc1-c1ncc2c(n1)n(Cc1ccc(-c3nc(C(F)(F)F)cn3C)cc1O)c(=N)n2C [Example T-081]
100 to 10000 nM | 250 to 10000 nM | ≥ 10000 nM | 250 to 10000 nM |  |  | CN(C)c1ncccc1-c1ncc2c(n1)n(Cc1ccc(-c3nc(C(F)(F)F)cn3C)cc1)c(=N)n2C [Example T-034]
100 to 10000 nM | 250 to 10000 nM | ≥ 10000 nM | 100 to 250 nM |  |  | Cn1cc(C(F)(F)F)nc1-c1ccc(Cn2c(=N)n(C)c3cnc(-c4ccccc4[C@@H](O)C(F)(F)F)nc32)cc1 (single isomer, unassigned) [Example T-148, 2,2,2-trifluoro-[2-[8-imino-7-methyl-9-[[4-[I-methyl-4-(trifluoromethyl)imidazol-2-yl]phenyl]methyl]purin-2-yl]phenyl]ethanol]
100 to 10000 nM | 250 to 10000 nM | ≥ 10000 nM | 250 to 10000 nM |  |  | Cn1cc(C(F)(F)F)nc1-c1ccc(Cn2c(=N)n(C)c3cnc(-c4cccnc4OCC(C)(C)C)nc32)cc1 [Example T-064]
100 to 10000 nM | 250 to 10000 nM | ≥ 10000 nM | 250 to 10000 nM |  |  | COc1ncccc1-c1ncc2c(n1)n(Cc1ccc(-c3nc(C(F)(F)F)cn3C(C)C)cc1)c(=N)n2C [Example T-037]
100 to 10000 nM | 250 to 10000 nM | ≥ 10000 nM | 250 to 10000 nM |  |  | COCCn1cc(C(F)(F)F)nc1-c1ccc(Cn2c(=N)n(C)c3cnc(-c4ccccc4C(F)(F)F)nc32)cc1 [Example T-066]
30 to 100 nM | 100 to 250 nM | 250 to 10000 nM | 100 to 250 nM |  |  | Cc1ccnc(OC(F)F)c1-c1ncc2c(n1)n(Cc1ccc(-c3nc(C(F)(F)F)cn3C)cc1)c(=N)n2CC(F)(F)F [Example T-115, 2-(2-(difluoromethoxy)-4-methylpyridin-3-yl)-9-(4-(1-methyl-4-(trifluoromethyl)-1H-imidazol-2-yl)benzyl)-7-(2,2,2-trifluoroethyl)-7H-purin-8(9H)-imine]
< 30 nM | < 100 nM | ≥ 10000 nM | < 100 nM |  |  | Cn1cc(C(F)(F)F)nc1-c1ccc(Cn2c(=N)n(C)c3cnc(-c4cccnc4OC(F)F)nc32)cc1 [Example T-082, 2-[2-(difluoromethoxy)-3-pyridyl]-7-methyl-9-[[4-[1-methyl-4-(trifluoromethyl)imidazol-2-yl]phenyl]methyl]purin-8-imine]
